Data on one compound can be found in US20250054624A1, “METHODS AND SYSTEMS FOR DIGITAL PATHOLOGY ASSESSMENT OF CANCER VIA DEEP LEARNING” (Artera Inc., priority 2023, published 2025).

“Also recorded” adds a separate entry of the source. Where two headings read alike, the source gives them in different places.

The test system of assay [1] is nonmetastatic castration-resistant prostate cancer (nmCRPC). Nature of the assay: SPARTAN phase III randomized placebo-controlled trial; outcomes by treatment group and MMAI risk group. The note with it: for PFS2 hazard ratio (HR) for apalutamide compared to placebo: second progression-free survival; for MFS HR, variable Treatment, Cox regression multivariable analysis / OS HR, variable Treatment, Cox regression multivariable analysis / PFS2 HR, variable Treatment, Cox regression multivariable analysis: all patients. It counts as in vivo, human. From the text:
The addition of apalutamide (APA) to androgen deprivation therapy (ADT) improved metastasis-free survival (MFS) and second progression-free survival (PFS2) among patients with nonmetastatic castration-resistant prostate cancer (nmCRPC). A digital histopathology-based multimodal AI (MMAI) algorithm as described herein was trained to evaluate whether MMAI could define risk of progression among nmCRPC patients treated with APA or placebo in the SPARTAN trial.
Patients enrolled in the SPARTAN trial with available H&E-stained biopsy slides from their primary diagnosis were included. H&E slides were digitized. Baseline clinical parameters to generate MMAI scores were Gleason score, age, T stage, and PSA. MMAI scores for distant metastasis (DM) were generated, ranging from 0 to 1. Patients were further categorized into MMAI non-high-risk and high-risk groups using a score cutoff. Kaplan Meier estimates were calculated for PFS2 and MFS; comparisons were performed using log-rank test and Cox proportional-hazards regression for treatment arms and MMAI risk groups. […] was used to evaluate the interaction between treatment arms and risk groups.
SPARTAN (NCT01946204) was an international, multicenter, randomized, double-blinded, placebo-controlled, phase III clinical trial that evaluated the efficacy of apalutamide in improving MFS in men with nmCRPC. […] These patients were considered at high risk for the development of metastases, as indicated by a PSA doubling time of 10 months or less during continuous ADT.
Participants were randomly assigned 2:1 to receive ongoing ADT with either apalutamide (240 mg daily) or a matched placebo. A primary endpoint of the study was MFS, defined as the duration from randomization to the first detection of distant metastasis on conventional imaging (as determined on central review by independent radiologists blinded to patient identifiers and treatment) or death from any cause, whichever occurred first. Secondary endpoints included second progression-free survival (PFS2), defined as the time from randomization to progression on first subsequent therapy, and overall survival (OS), defined as the time from randomization to death.
MMAI scores were computed for each subject within the analysis cohort using whole slide images digitized at 20× resolution from H&E-stained prostate primary slides obtained at the time of diagnosis. These scores, ranging from 0 to 1, represent a continuum of increasing probabilities for clinical events such as DM and PCSM. Subjects' MMAI scores for risk of DM categorized patients into MMAI risk groups (low, intermediate and high) using predefined clinical thresholds established for patients with localized prostate cancer based upon clinician input. For the purpose of this analysis, patients were categorized as either MMAI high risk or MMAI non-high risk (MMAI score with >10% estimated 10-year DM rates defined high-risk), with the latter group combining the low and intermediate risk categories for comparison.
Summary statistics of baseline characteristics for the analysis cohort, treatment subgroups and the overall clinical trial cohort were reported to evaluate comparability. Kaplan-Meier estimates were calculated for MFS, PFS2, and OS for analysis by treatment group and MMAI risk groups. Comparisons were performed using log-rank test and Cox proportional hazards regression models for treatment arms, MMAI risk scores, and MMAI risk group. The reporting unit for continuous MMAI scores in the Cox models is standard deviation (SD), meaning that each 1-unit increase corresponds to 1 SD increase in MMAI score. The interaction between treatment arm and MMAI risk scores was evaluated using a Cox proportional hazards model. Treatment effects within each MMAI risk subgroup were also assessed to measure the relative treatment effect between arms. […]

The test system is the same in assay [2]. The conditions noted are these: cited from earlier work.
Where [3] appears, read: all patients of analysis cohort.
The mark [4] stands for this setting: model with MMAI risk group (high/non-high) and MMAI risk group:Treatment interaction.
Setting [5] is: model with continuous MMAI risk score and MMAI risk score:Treatment interaction.
Setting [6] is: overall SPARTAN study, in words.

Take `CNC(=O)c1ccc(N2C(=S)N(c3cnc(C#N)c(C(F)(F)F)c3)C(=O)C23CCC3)cc1F` [apalutamide]: the “Median overall survival (95% CI), month” value in assay [1] (MMAI Biomarker Cohort, N = 311) stood at 65.1 month. The “MFS hazard ratio (HR) for apalutamide compared to placebo” value in assay [1] (MMAI high risk group, metastasis-free survival, with ongoing ADT) is listed as 0.19. For the same compound, the “OS hazard ratio (HR) for apalutamide compared to placebo” value in assay [1] (MMAI high risk group, overall survival) is 0.6. The “PFS2 hazard ratio (HR) for apalutamide compared to placebo” value in assay [1] (MMAI high risk group) was 0.47. The “PFS2 hazard ratio (HR) for apalutamide compared to placebo” value in assay [1] (MMAI high risk group, listed as APA) was found to be 0.76. Besides, in assay [1] (setting [3]), the “MFS HR, variable Treatment, Cox regression univariate analysis” value was found to be 0.28 and the “PFS2 HR, variable Treatment, Cox regression univariate analysis” value came to 0.55. In assay [1] (all patients of analysis cohort, listed as Treatment), the “OS HR, variable Treatment, Cox regression univariate analysis” value came out at 0.7. For the same compound, in assay [1] (setting [4]), the “MFS HR, variable Treatment, Cox regression multivariable analysis” value is on record as 0.61; the “OS HR, variable Treatment, Cox regression multivariable analysis” value stood at 0.97; the “PFS2 HR, variable Treatment, Cox regression multivariable analysis” value is 0.74. For the same compound, in assay [1] (setting [5]), the “MFS HR, variable Treatment, Cox regression multivariable analysis” value stood at 1.72; the “OS HR, variable Treatment, Cox regression multivariable analysis” value came to 1.98; the “PFS2 HR, variable Treatment, Cox regression multivariable analysis” value is listed as 2.28. Further, in assay [2] (Overall SPARTAN Trial, N = 806), the “Median metastasis-free survival (95% CI), month” value is 40.5 month and the “Median overall survival (95% CI), month” value is reported as 73.9 month. In assay [2] (setting [6]), the “metastasis-free survival (MFS), effect of adding apalutamide to ADT” value was “significantly improved”; the “second progression-free survival (PFS2), effect of adding apalutamide to ADT” value is recorded as “significantly improved”; the “time to symptomatic progression, effect of adding apalutamide to ADT” value is listed as “significantly improved”. In addition, the “overall survival (OS), effect of adding apalutamide to ADT compared to placebo” value in assay [2] (overall SPARTAN study, in words, median follow up of 52 months) is reported as “significantly improved; also recorded: significant extension”.
